Measured values as given in patent publication US11971402B2, “Methods and reagents for determination and treatment of organotropic metastasis” (CORNELL UNIVERSITY, priority 2015, dated 2024).

How the values were obtained:
[1] = system: 4175-LuT exosome uptake in the lung; assay: Peptide blocking of 4175-LuT exosome uptake in the lung; type: in vivo, mice; settings: 0.06 μM peptide, 30 minutes at 37° C. prior to exosome injection
Description: FIGS. 6A-D show exosomal ITGβ4 expression functionally contributes to 4175-LuT exosome localization and mediates lung metastasis. FIG. 6A, left upper panels, show NIR whole lung imaging of 4175-LuT, 4175β4KD or 4175-LuT-derived exosomes pre-incubated with RGD or HYD-1 peptides. Scale bar, 5 mm. […] (n=4, except 4175 for which n=6). Error bars, ± s.e.m. *P<0.05; **P<0.01 by one-way ANOVA. The left lower panels show fluorescence microscopy. Arrows indicate exosome foci. Scale bar, 50 μm. […] Error bars, ±s.e.m. ***P<0.001 by one-way ANOVA. FIG. 6B, left panel, show NIR whole lung imaging of 1833-BoT (n=5) or 1833-BoT overexpressing (OE) ITGβ4 (n=4) exosomes. Scale bar, 5 mm. […] Bioluminescence imaging of lung metastasis and quantification of luciferase activity (n=6, data representative of 2 independent experiments) is shown. […]
To assess lung, liver and bone exosome distribution, exosomes were injected via the retro-orbital venous sinus, the tail vein or intracardially. […] An average of five random fields was counted per sample at 20× magnification and representative pictures were taken at 40× magnification. […] To measure exosome uptake by specific cell types, labelled exosomes were injected 24 hours prior to tissue collection and tissues were analysed for exosome-positive cells by immunofluorescence. […] Whole lung images were analysed by image J software, by red fluorescence area in arbitrary unit (a.u.).

[2] = system: WI-38 lung fibroblasts; assay: In vitro uptake of 4175-LuT exosomes by WI-38 lung fibroblasts; type: cell-based, human; settings: 10 μg/ml exosomes pre-incubated with peptide 30 minutes at 37° C., one hour with cells
Description: FIGS. 5A-M show ITGs functionally regulate organotropic exosome uptake and exosome-mediated metastasis. […] For western blot source data, see FIG. 9L. […] The WI-38 cell membrane was labelled with PKH67 dye and 4175-LuT exosomes were labelled with PKH26 dye. 10 μg/ml of exosomes were first incubated with PBS or HYD-1 peptide for 30 minutes at 37° C., followed by one hour incubation with WI-38 cells at 37° C. Excess exosomes were washed and cells were imaged (n=4 for two independent experiments); scale bar, 10 μm. […] For western blot source data, see FIG. 9M. […] Arrows indicate lung metastasis. Scale bar, 500 μm. […] For western blot source data, see FIG. 9N. […] An average of five random fields were counted at 20× magnification (data representative of 2 independent experiment n=3). […] Livers were harvested and analyzed for exosome positive cells by flow cytometry 24 hours post injection (n=4, except for the ITGαvβ5 antibody group, which n=5). […] Livers were digested and exosome-positive cells were quantified by flow cytometry (n=3). […] The lower panels show liver weight quantification (n=4 except for the control and peptide group for which n=3 of one experiment). […] Three days after cells were plated at equal density, cell numbers were counted using a hemocytometer (n=3 in 3 independent experiments). […]

With “KIKMVISWKG (Artificial Amino acid HYD-1 peptide)” the “4175-LuT exosome uptake in the lung after pre-incubation with peptide” value [1] was “dramatically reduced” and the “uptake of 4175-LuT exosomes by WI-38 lung fibroblasts in vitro” value [2] was “prevented”.
